Data taken from patent US20040176285A1, “Tip39 polypeptides” (priority 2001, published 2004).
Where no end group is shown, it is not given here.

Tests used:
[1] = target: T1, PTH1R (Homo sapiens, UniProt Q03431); conditions: cited from earlier work
T1 sequence (Q03431 27-593): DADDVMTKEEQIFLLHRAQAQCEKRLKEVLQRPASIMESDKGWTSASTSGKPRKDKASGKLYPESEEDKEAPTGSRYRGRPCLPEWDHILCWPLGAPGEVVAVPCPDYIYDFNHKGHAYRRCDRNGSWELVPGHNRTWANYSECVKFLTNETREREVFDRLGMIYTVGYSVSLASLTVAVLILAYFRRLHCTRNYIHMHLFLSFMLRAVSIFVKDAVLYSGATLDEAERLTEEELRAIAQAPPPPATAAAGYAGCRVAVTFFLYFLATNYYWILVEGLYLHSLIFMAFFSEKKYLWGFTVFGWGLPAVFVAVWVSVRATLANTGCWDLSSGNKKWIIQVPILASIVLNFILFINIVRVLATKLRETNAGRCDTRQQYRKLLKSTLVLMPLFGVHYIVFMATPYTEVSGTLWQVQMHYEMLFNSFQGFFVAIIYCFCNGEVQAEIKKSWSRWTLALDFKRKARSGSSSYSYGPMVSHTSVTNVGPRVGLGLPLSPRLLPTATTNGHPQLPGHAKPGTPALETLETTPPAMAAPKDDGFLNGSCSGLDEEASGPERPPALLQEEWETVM

[2] = target: T1, PTH1R; conditions: cited from earlier work; remark: listed apart in the source
[3] = target: T1, PTH1R; conditions: cited from earlier work; remark: listed apart in the source
[4] = target: T2, endogenous PTH1R (Homo sapiens, UniProt Q03431); experiment: Ligand-stimulated cAMP accumulation in SaOS-2 cells; format: cell-based; conditions: SaOS-2 cells
T2 construct: SaOS-2 cells expressing the wild-type PTH1R endogenously; endogenous in cells; host or cells: SaOS-2 human osteosarcoma cells
T2 sequence (Q03431 27-593): T1 sequence (Q03431 27-593)
Experimental: (§1) DMEM, Trypsin/EDTA, and penicillin G/streptomycin and horse serum were from Gibco/BRL, Life Technologies, Gaithersburg, Md. LLC-PK, expressing the recombinant human PTH1R (HKrk-B7 cells) and SaOS-2 cells expressing the wild-type PTH1R endogenously were cultured in DMEM supplemented with 10% heat-inactivated fetal bovine serum, 100 U/ml penicillin, 100 μg/ml streptomycin, as previously described (Gardella, T. J., et al., J. Biol. Chem. 271:19888-19893 (1996); Fukayama, S., et al., Endocrinology 134:1851-1858 (1994)); both cell lines were maintained in a humidified atmosphere containing 95% air and 5% CO2. After seeding, medium was replaced daily, until cells were used for radioligand binding or cAMP accumulation assays.
Na^125I (specific activity: 2,000 Ci/mmol) was purchased from DuPont/NEN, Boston, Mass. Fetal bovine serum, 3-isobutyl-1-methyl-xanthine (IBMX), and BSA were from Sigma, St. Louis, Mo., and trifluoroacetic acid (TFA) was from Pierce, Rockford, Ill. Radiolabeled rPTH(1-34) and PTHrP(1-36) were prepared by the chloramine-T method, followed by HPLC purification using a 30-50% ACN/0.1% TFA gradient over 30 minutes; radioreceptor assays were performed in 24-well plates as previously described (Gardella, T. J., et al., J. Biol. Chem. 271:19888-19893 (1996); Fukayama, S. et al., Endocrinology 134:1851-1858 (1994)). In brief, each well (final volume 500 μl) contained binding buffer (BB; 50 mM Tris-HCl (pH 7.7), 100 mM NaCl, 5 mM KCl, 2 mM CaCl2, 5% heat-inactivated horse serum, and 0.5% heat-inactivated fetal bovine serum), the ^125I-labeled PTH or PTHrP analog (100,000 to 200,000 cpm) was incubated in the absence or presence of increasing concentrations of unlabeled peptides. […] The entire lysate was counted for γ-irradiation. Specific binding was determined after subtracting radioactivity bound in the presence of maximal concentrations of unlabeled competing peptide (10^−6 M). […] Data were analyzed and graphically illustrated using the graph-pad prism software package. […]

[5] = target: T3, human PTH2 receptor (Homo sapiens, UniProt P49190); experiment: Ligand-stimulated cAMP accumulation in hPR2-20 LLCPK1 cells; format: cell-based
T3 construct: expressed in transfected cells

[6] = target: T1, PTH1R; experiment: Ligand-stimulated cAMP accumulation in HKrk-B7 cells; format: cell-based; parameters: expressed in transfected cells; conditions: HKrk-B7 cells
Experimental: as §1
Na^125I (specific activity: 2,000 Ci/mmol) was purchased from DuPont/NEN, Boston, Mass. Fetal bovine serum, 3-isobutyl-1-methyl-xanthine (IBMX), and BSA were from Sigma, St. Louis, Mo., and trifluoroacetic acid (TFA) was from Pierce, Rockford, Ill. Radiolabeled rPTH(1-34) and PTHrP(1-36) were prepared by the chloramine-T method, followed by HPLC purification using a 30-50% ACN/0.1% TFA gradient over 30 minutes; radioreceptor assays were performed in 24-well plates as previously described (Gardella, T. J., et al., J. Biol. Chem. 271:19888-19893 (1996); Fukayama, S. et al., Endocrinology 134:1851-1858 (1994)). In brief, each well (final volume 500 μl) contained binding buffer (BB; 50 mM Tris-HCl (pH 7.7), 100 mM NaCl, 5 mM KCl, 2 mM CaCl2, 5% heat-inactivated horse serum, and 0.5% heat-inactivated fetal bovine serum), the ^125I-labeled PTH or PTHrP analog (100,000 to 200,000 cpm) was incubated in the absence or presence of increasing concentrations of unlabeled peptides. After 4 h at 16° C., buffer was completely removed, the cells were rinsed with cold BB and lysed with 1 M NaOH. The entire lysate was counted for γ-irradiation. Specific binding was determined after subtracting radioactivity bound in the presence of maximal concentrations of unlabeled competing peptide (10^−6 M). Agonist-dependent stimulation of cAMP accumulation by HKrk-B7 and SaOS-2 cells (48-well plates; stimulation at room temperature for 45 minutes) and the subsequent measurement of cAMP by radioimmunoassay was performed as previously described (Gardella, T. J., et al., J. Biol. Chem. 271:19888-19893 (1996); Bergwitz, C., et al., Endocrinology 139:723-732 (1998)). Data were analyzed and graphically illustrated using the graph-pad prism software package.
The values for EC50 and Vmax (mean±SE) are derived from at least three independent experiments.

[7] = target: T1, PTH1R; experiment: Inhibition of agonist-stimulated cAMP accumulation in SaOS-2 cells; format: cell-based; parameters: expressed in transfected cells; conditions: SaOS-2 cells (stated for both cell lines); agonists 0.15-0.3 nM
Source text: FIG. 4A-4F. Inhibition of agonist-stimulated cAMP accumulation in HKrk-B7 cells (FIG. 4A-4C) or SaOS-2 cells (FIG. 4D-4F). […] Data are expressed as % of half-maximal cAMP accumulation and represent the results (mean±SE) of at least three independent experiments.
Na^125I (specific activity: 2,000 Ci/mmol) was purchased from DuPont/NEN, Boston, Mass. Fetal bovine serum, 3-isobutyl-1-methyl-xanthine (IBMX), and BSA were from Sigma, St. Louis, Mo., and trifluoroacetic acid (TFA) was from Pierce, Rockford, Ill. Radiolabeled rPTH(1-34) and PTHrP(1-36) were prepared by the chloramine-T method, followed by HPLC purification using a 30-50% ACN/0.1% TFA gradient over 30 minutes; radioreceptor assays were performed in 24-well plates as previously described (Gardella, T. J., et al., J. Biol. Chem. 271:19888-19893 (1996); Fukayama, S. et al., Endocrinology 134:1851-1858 (1994)). […] The entire lysate was counted for γ-irradiation. Specific binding was determined after subtracting radioactivity bound in the presence of maximal concentrations of unlabeled competing peptide (10^−6 M). […] Data were analyzed and graphically illustrated using the graph-pad prism software package.

T3 sequence (P49190 25-550): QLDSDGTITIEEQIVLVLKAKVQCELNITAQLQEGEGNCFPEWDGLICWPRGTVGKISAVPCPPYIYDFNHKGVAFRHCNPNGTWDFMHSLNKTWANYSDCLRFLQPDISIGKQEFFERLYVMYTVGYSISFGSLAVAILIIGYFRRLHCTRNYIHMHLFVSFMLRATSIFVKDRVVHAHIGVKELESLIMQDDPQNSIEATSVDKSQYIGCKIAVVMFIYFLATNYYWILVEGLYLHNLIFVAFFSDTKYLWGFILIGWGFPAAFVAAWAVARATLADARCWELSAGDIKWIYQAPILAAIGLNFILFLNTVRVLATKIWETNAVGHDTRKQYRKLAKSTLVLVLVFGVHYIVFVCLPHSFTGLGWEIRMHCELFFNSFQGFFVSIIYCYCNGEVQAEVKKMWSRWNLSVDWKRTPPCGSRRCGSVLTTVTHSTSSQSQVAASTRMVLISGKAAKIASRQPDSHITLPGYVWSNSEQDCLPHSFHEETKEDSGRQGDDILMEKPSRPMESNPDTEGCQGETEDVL

## TIP(7-39): truncated TIP39 of Hoare et al., excluded from the claims (DAAFRERARLLAALERRHWLNSYMHKLLVLDAP; Tuberoinfundibular peptide of 39 residues; UniProt P0C171 68-100, looked up, fragment)
[1]
  inhibition of radioligand binding to the PTH1R (in words): efficiently inhibited radioligand binding
[2]
  agonist activity at the PTH1R (in words): no agonist activity

## PTH(15-34)amide (LNSMERVEWLRKKLQDVHNF; not fully specified (C-terminus); UniProt P01270 46-65, looked up, fragment)
[3]
  affinity for the PTH1R (in words): very low (micromolar) affinity

## CSCC[C@H](NC(=O)[C@H](Cc1ccc(O)cc1)NC(=O)[C@H](CO)NC(=O)[C@H](CC(N)=O)NC(=O)[C@H](CC(C)C)NC(=O)[C@H](Cc1c[nH]c2ccccc12)NC(=O)[C@H](Cc1c[nH]cn1)NC(=O)[C@H](CCCNC(=N)N)NC(=O)[C@H](CCCNC(=N)N)NC(=O)[C@H](CCC(=O)O)NC(=O)[C@H](CC(C)C)NC(=O)[C@H](C)NC(=O)[C@H](C)NC(=O)[C@H](CC(C)C)NC(=O)[C@H](CC(C)C)NC(=O)[C@H](CCCNC(=N)N)NC(=O)[C@H](C)NC(=O)[C@H](CCCNC(=N)N)NC(=O)[C@H](CCC(=O)O)NC(=O)[C@H](CCCNC(=N)N)NC(=O)[C@H](Cc1ccccc1)NC(=O)[C@H](C)NC(=O)[C@H](C)NC(=O)[C@H](CC(=O)O)NC(=O)[C@H](CC(=O)O)NC(=O)[C@H](C)NC(=O)[C@H](CC(C)C)NC(=O)[C@H](C)NC(=O)[C@H](CC(C)C)NC(=O)[C@@H](N)CO)C(=O)N[C@@H](Cc1c[nH]cn1)C(=O)N[C@@H](CCCCN)C(=O)N[C@@H](CC(C)C)C(=O)N[C@@H](CC(C)C)C(=O)N[C@H](C(=O)N[C@@H](CC(C)C)C(=O)N[C@@H](CC(=O)O)C(=O)N[C@@H](C)C(=O)N1CCC[C@H]1C(N)=O)C(C)C [TIP(1-39), reference compound]
[4]
  stimulation of cAMP accumulation (in words): failed to stimulate cAMP accumulation
[5]
  maximum cAMP accumulation: 136.5±4.9 pmol/well
[6]
  stimulation of cAMP accumulation at the PTH1R (in words): failed to stimulate cAMP accumulation
[7]
  inhibition of agonist actions (in words): inhibited the actions of the three agonists
